Assay [1] concerns the target T1, ERK2 (Homo sapiens, UniProt P28482).
T1 construct: gene MAPK1
In words: IMAP TR-FRET enzymatic kinase (cascade) assay. The format is biochemical.

The target in assay [2] is T2, ERK1 (Homo sapiens, UniProt P27361).
T2 construct: gene MAPK3
In words: IMAP TR-FRET enzymatic kinase (cascade) assay. The format is biochemical. (In general: In TR-FRET formats the signal depends on donor and acceptor labels being close together.)

For one molecule, IC50 results are on record in PMC9319741, “A Novel ERK2 Degrader Z734 Induces Apoptosis of MCF–7 Cells via the HERC3/p53 Signaling Pathway” (Molecules, 2022).

T1 sequence (P28482 2-360): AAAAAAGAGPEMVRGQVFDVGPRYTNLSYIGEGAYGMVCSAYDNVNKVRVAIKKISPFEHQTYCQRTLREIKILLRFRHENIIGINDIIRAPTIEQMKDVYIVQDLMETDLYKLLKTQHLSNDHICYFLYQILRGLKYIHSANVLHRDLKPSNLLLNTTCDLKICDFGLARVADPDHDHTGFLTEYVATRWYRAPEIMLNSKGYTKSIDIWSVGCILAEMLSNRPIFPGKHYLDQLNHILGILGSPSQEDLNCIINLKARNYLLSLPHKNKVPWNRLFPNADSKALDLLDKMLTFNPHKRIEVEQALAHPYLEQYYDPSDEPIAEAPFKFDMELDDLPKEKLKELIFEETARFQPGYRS
T2 sequence (P27361 2-379): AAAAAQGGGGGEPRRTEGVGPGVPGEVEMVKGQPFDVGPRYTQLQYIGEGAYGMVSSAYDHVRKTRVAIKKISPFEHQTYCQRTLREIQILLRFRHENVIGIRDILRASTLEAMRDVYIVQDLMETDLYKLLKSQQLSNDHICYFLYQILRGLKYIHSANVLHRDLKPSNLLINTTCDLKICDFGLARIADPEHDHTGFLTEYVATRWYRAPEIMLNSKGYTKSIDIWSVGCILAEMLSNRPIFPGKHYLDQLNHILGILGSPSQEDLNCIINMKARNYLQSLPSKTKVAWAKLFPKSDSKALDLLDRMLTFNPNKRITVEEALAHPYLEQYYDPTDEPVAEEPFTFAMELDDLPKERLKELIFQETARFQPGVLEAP

In the case of `CC(=O)NC(CC(=O)N(c1ccccc1)c1nc2ccccc2s1)c1ccccc1` (centres unmarked) [Z734], the IC50 (usually the concentration that inhibits the measured activity by half) in assay [1] amounted to 3 nM; in assay [2], 9 nM.
